Test results reported in patent publication US20210355105A1, “REGULATOR OF NITROGEN-CONTAINING HETEROAROMATIC DERIVATIVES, PREPARATION METHOD THEREFOR AND USE THEREOF” (Jiangsu Hansoh Pharmaceutical Group Co., Ltd., priority 2018, published 2021).

Columns and labels:
NCI-H358 cells = test: Proliferation inhibition of NCI-H358 cells (CellTiter-Glo); type: cell-based; conditions: Homo sapiens, NCI-H358, 72 h; 3 days incubation
Method: Experimental method: 3000 cells (90 μL of cell suspension) were inoculated to each well of a 96-well cell culture plate (Corning, #3610). The culture plate was incubated in an incubator overnight (37° C., 5% CO2). On the next day, 10 μL of gradient dilutions of the test compound solution (the final DMSO content was 0.2%, V/V, the final concentration of the reaction system ranged from 10 μM to 4.5 nM) was added to each well of the culture plate. At the same time, full activity control (compound only with DMSO) and full inhibition control (no cells) were set up on the reaction plate. The culture plate was incubated in the incubator for 3 days (37° C., 5% CO2).
After completion of the incubation, 50 μL of CellTiter-Glo reagent was added to each well of the cell culture plate, which was left to stand at room temperature for 10 minutes. The chemiluminescence signal value was measured in the Synergy H1 full-function microplate reader (BioTek). […] The IC50 value of the test compounds was calculated by fitting the percentage inhibition rate and data of eight concentrations to a four-parameter nonlinear logic formula with GraphPad prism.
The IC50 value was calculated by fitting the data of different concentrations and corresponding percentage inhibition rates to a four-parameter nonlinear logic formula with GraphPad prism.

[1] = test system: human pancreatic cancer cell MiaPaca 2 xenograft; test: Tumor inhibition test on MiaPaca 2 xenograft model; type: in vivo, Balb/c nude mice; conditions: intragastric
Method: Balb/c nude mice were used as test animals. In vivo pharmacodynamic test was carried out on human pancreatic cancer cell MiaPaca 2 xenograft (CDX) model to evaluate the anti-tumor effect of the test compounds.
MiaPaca 2 cells were taken from the cell bank and thawed. The cells were added to the DMEM medium (containing 10% FBS, 1% Glu and 1% P/S), and incubated in the CO2 incubator (the temperature of the incubator was 37° C., and the CO2 concentration was 5%). After the cells covered 80-90% of the bottom of the culture flask, the cells were passaged. After passage, the cells continued to be incubated in the CO2 incubator. The process was repeated until the number of cells met the inoculation requirement of the in vivo pharmacodynamic test. The cells in logarithmic growth phase were collected, and counted by the automatic cell counter. According to the counting results, the cells were resuspended with PBS and Matrigel (volume ratio: 1:1) to obtain a cell suspension (density: 8×10^7/ml), which was placed in an ice box for later use.
Female Balb/c nude mice (6-8 weeks old, body weight: about 18-22 grams) were used as test animals. The mice were maintained in an environment free of special pathogens and in a single ventilated cage (five mice per cage). All cages, bedding and water were disinfected before use. All animals had free access to standard certified commercial laboratory animal diets. The nude mice were marked with a disposable universal ear tag for rats and mice before the test. The skin of the inoculation site was disinfected with 75% medical alcohol before the inoculation. Each mouse was inoculated with 0.1 ml of MiaPaca 2 tumor cells (containing 8*10^6 cells) subcutaneously on the right back. When the average tumor volume reached 100 to 200 mm^3, administration was carried out. The test compounds were administered intragastrically daily. The tumor volume (mm^3) was measured with the vernier caliper twice a week. The tumor volume calculation formula: V=0.5*D*d*d, wherein D and d represent the long diameter and short diameter of the tumor, respectively. The anti-tumor efficacy was determined by dividing the average tumor increase volume of the compound-treated animals by the average tumor increase volume of the untreated animals. Tumor growth inhibition rate calculation formula: […]
All animals were euthanized after the experiment.

[2] = Pharmacokinetics assay in mice, oral administration; type: in vivo; conditions: mouse; male Balb/c mice, oral 5 mg/kg, plasma
Method: (§1) Balb/c mice were used as test animals.
5 g of hydroxyethyl cellulose (HEC, CMC-Na, viscosity: 800-1200 Cps) was dissolved in 1000 mL of purified water, and 10 g of Tween80 was added. The solution was mixed well to form a clear solution. […] The solution was subjected to ultrasound for 10 minutes to obtain a colorless and clear solution with a concentration of 0.5 mg/mL.
After an overnight fast, male Balb/c mice were administrated orally with the test compounds at an administration dose of 5 mg/kg and an administration volume of 10 mL/kg.
(§2) Blood was taken before administration and at 0.25 hour, 0.5 hour, 1 hour, 2 hours, 4 hours, 6 hours, 8 hours and 24 hours after administration. The blood samples were stored in EDTA-2K tubes, and centrifuged for 6 minutes at 6000 rpm, at 4° C. to separate the blood plasma. The plasma samples were stored at −80° C. The mice were fed four hours after administration.

Tolerance assay in mice = type: in vivo, Balb/c mice; conditions: 10 mg/kg QD oral
Method: as §1
The solution was subjected to ultrasound for 10 minutes to obtain a colorless and clear solution with a concentration of 1 mg/mL.
After an overnight fast, Balb/c mice (3 male and 3 female) were administrated orally with the test compound at an administration dose of 10 mg/kg and an administration volume of 10 mL/kg.
The mice were weighed daily before and after administration, and abnormal responses were observed. The mice were fed four hours after administration.

[3] = Pharmacokinetics assay in mice, single intravenous injection; type: in vivo; conditions: male Balb/c mice
Method: as §1
The solution was subjected to ultrasound to obtain a clear solution. The solution was filtered with a 0.22 μm water filter, and the filtrate was the formulation for intravenous administration (i.v.). The concentration was 0.2 mg/mL.
After an overnight fast, male Balb/c mice were administered intravenously with the test compounds at an administration dose of 1 mg/kg and an administration volume of 5 mL/kg.
as §2, with “at 0 minute, 5 minutes, 15 minutes,” for “at 0.25 hour,”, “hour, 1.0” for “hour, 1”, “hour, 2.0” for “hour, 2”, “hours, 4.0” for “hours, 4”, “hours, 8.0” for “hours, 6 hours, 8”, “and 24.0” for “and 24”

[4] = mouse, iv, i.v. 1 mg/kg, plasma

| SMILES | IC50 (NCI-H358 cells) [nM] | Tumor volume (Mean ± SD) Day 0 ([1]; 6 mg/kg QD × 3 w) | TGI Day 21 ([1]; 6 mg/kg QD × 3 w) [%] | Tumor volume (Mean ± SD) Day 21 ([1]; 6 mg/kg QD × 3 w) [mm^3] | ΔT/ΔC Day 21 ([1]; 6 mg/kg QD × 3 w) [%] | AUC(0-inf) [2] [ng·h/mL] | Cmax [2] [ng/mL] | MRT [2] [h] | Tmax [2] [min] | half-life [2] [min] | further results |
| --- | --- | --- | --- | --- | --- | --- | --- | --- | --- | --- | --- |
| Cc1nc(N2CCC3(CC2)Cc2ncsc2[C@H]3N)c(CO)nc1Sc1ccnc(N)c1Cl [Example 171, (S)-(6-((2-amino-3-chloropyridin-4-yl)thio)-3-(6-amino-4,6-dihydrospiro[cyclopenta[d]thiazole-5,4′-piperidin]-1′-yl)-5-methylpyrazin-2-yl)methanol] | 11.9 | 167 ± 26 (168 ± 32) mm^3 | 95.43 | 198 ± 70 | 4.57 | 2210 | 475 | 4.34 | 30 | 184 |  |
| Nc1nccc(Sc2cnc(N3CCC4(CC=C(C5CC5)[C@H]4N)CC3)cn2)c1Cl [Example 144, (S)-8-(5-((2-amino-3-chloropyridin-4-yl)thio)pyrazin-2-yl)-2-cyclopropyl-8-azaspiro[4.5]dec-2-en-1-amine] | 9.19 |  |  |  |  | 5390 | 436 | 9.08 | 60 |  | Tumor volume (Mean ± SD) Day 0 ([1]; 3 mg/kg QD × 3 w): 172 ± 26 (173 ± 28) mm^3; TGI Day 21 ([1]; 3 mg/kg QD × 3 w): 95.07%; Tumor volume (Mean ± SD) Day 21 ([1]; 3 mg/kg QD × 3 w): 216 ± 66 mm^3; ΔT/ΔC Day 21 ([1]; 3 mg/kg QD × 3 w): 4.93% |
| Nc1nc(N2CCC3(CC2)Cc2ccccc2[C@H]3N)c(F)nc1Sc1ccnc(N)c1Cl [Example 179, (S)-1′-(6-amino-5-((2-amino-3-chloropyridin-4-yl)thio)-3-fluoropyrazin-2-yl)-1,3-dihydrospiro[indene-2,4′-piperidin]-1-amine] | 20.9 | 166 ± 28 (168 ± 32) mm^3 | 91.00 | 227 ± 37 | 9.00 | 2440 | 179 | 7.92 | 30 | 314 | Body weight (Mean) Day 1 (Tolerance assay in mice; female mice): 22.07 g; Body weight (Mean) Day 16 (Tolerance assay in mice; female mice): 25.09 g; Body weight changes ΔW/W1 (Mean) Day 16 (Tolerance assay in mice; female mice): 13.80%; Body weight (Mean) Day 1 (Tolerance assay in mice; male mice): 23.01 g; Body weight (Mean) Day 16 (Tolerance assay in mice; male mice): 28.30 g; Body weight changes ΔW/W1 (Mean) Day 16 (Tolerance assay in mice; male mice): 23.25%; F ([3]; printed in the i.v. 1 mg/kg table): 71%; AUC(0-inf) [3, 4]: 736 ng·h/mL; C0 [3, 4]: 264 ng/mL; MRT [3, 4]: 9.04 h; clearance [3, 4]: 22.6 mL/min/kg; half-life [3, 4]: 464 min; Vd ([3]; mouse, iv, i.v. 1 mg/kg, plasma, read-out: Vss): 12.3 L/kg |
| Nc1nc(N2CCC3(CC2)Cc2ncsc2[C@H]3N)c(F)nc1Sc1ccnc(N)c1Cl [Example 181, (S)-1′-(6-amino-5-((2-amino-3-chloropyridin-4-yl)thio)-3-fluoropyrazin-2-yl)-4,6-dihydrospiro[cyclopenta[d]thiazole-5,4′-piperidin]-6-amine] | 46.5 |  |  |  |  | 8160 | 1380 | 5.07 | 30 | 278 | Tumor volume (Mean ± SD) Day 0 ([1]; 10 mg/kg QD × 3 w): 176 ± 36 (176 ± 39) mm^3; TGI Day 21 ([1]; 10 mg/kg QD × 3 w): 92.94%; Tumor volume (Mean ± SD) Day 21 ([1]; 10 mg/kg QD × 3 w): 240 ± 86 mm^3; ΔT/ΔC Day 21 ([1]; 10 mg/kg QD × 3 w): 7.06% |
